Entries after “also recorded” stand apart in the source; their conditions may differ.
Tests used:
Assay type in all cases: in vivo, mouse
[1] = tested on: miR-143/145-deficient mice; experiment: Hemodynamic measurements by aortic catheterization under isoflurane, acute ACE inhibition; conditions: miR-143/145 KO animals compared with WT, isoflurane anaesthesia, captopril via jugular vein
Method: Aortic catheterization was performed using a 1.4 F pressure-volume catheter. Data were recorded and analyzed with Chart v5.4 as described before (51). Mice were anaesthetized with isoflurane (2 vol % in O2) and their body temperature was kept at 37° C. as monitored by a rectal probe. Captopril (30 mg/kg body weight, 50 μl) and angiotensin II (5 to 50000 ng/kg body weight, 50 μl) were applied via the left jugular vein. For measurements of conscious, unrestrained mice, hemodynamic parameters were recorded by telemetry (DSI, Transoma Medical, USA, TA11PA-C10 transmitters) after a recovery period from surgery of more than 7 days. Recordings were obtained every 2 minutes for 20 seconds at a sampling frequency of 1000 Hz and were analyzed for day (07:00-19:00) and nighttime (19:00-07:00) periods, respectively, to evaluate circadian variation in hemodynamics.

[2] = tested on: femoral arteries from KO mice; experiment: Myograph: contractility of isolated femoral artery rings from mice chronically treated with captopril
Excerpt: (§1) A 129S7AB2.2 genomic BAC clone (bMQ-446B20; Sanger) was used to generate the targeting vector. Recombination in SW102 cell was employed to replace the miR-143 to miR-145 genomic region by a galK cassette (45) that was amplified by the primers flanking premiR-143 to pre-miR-145 ([…] GCggcgcgcctcagcactgtcctgctcctt; […] ACggcgcgcctgttgacaattaatcatcggca). The genomic sequence was inserted via gap repair into a pKO targeting vector containing a DTA expression cassette and 450 bp homology arms for BAC recombination resulting in a vector containing 6.5 kb of sequence 5′ of miR-143 and 5.5 kb 3′ of miR-145 from genomic sequence […] to […]. The AscI restriction sites flanking the galK cassette were used to replace the galK by a floxed IRESIacZ-NeoR cassette. The vector was electroporated into MPI II ES cells (46) and recombinant clones were identified. Recombinant ES cells were injected into blastocysts and transferred to pseudopregnant mice. Chimeric animals were backcrossed to C57BL/6 mice. Heterozygous animals were used to obtain WT and KO littermates. ES cells and mice were genotyped using an EcoRV restriction digest and a 5′ outside probe amplified from genomic DNA using oligonucleotides ([…]; […]). […] The experiments were performed in accordance with German legislation on protection of animals and were approved by the local governmental animal care committee (Regierungspraesidium Darmstadt).
Isolated segments of femoral and mesenteric arteries were examined in an isometric microvessel myograph as described previously (52). Mounted vessels were stimulated with 80 mM K+, 30 nM angiotensin II or increasing concentrations of phenylephrine (100 nM to 10 μM). The pCa-force relationships (13, 14) were obtained in permeabilized mouse femoral artery segments. In brief, arteries were permeabilized for 30 minutes using 0.5% Triton X-100 in relaxation solution. The latter consisted of (in mM): EGTA 1, Pipes 30, Na2ATP 5.16, MgCl2 7.31, sodium creatine phosphate 10 and potassium gluconate 74.1. For contraction curves the buffer was supplemented with 160 U/ml calmodulin and 100 U/ml creatine phosphokinase. The concentration of free Ca2+ ions was calculated as described previously (53).

[3] = tested on: aortae of miR-143/145 KO mice; experiment: Affymetrix GeneChip mRNA expression analysis of aortae after chronic captopril or losartan; conditions: for FC Acta1 (1427735_a_at), treated miR-143/145 KO vs. WT / FC Arhgef17 (1433682_at), treated miR-143/145 KO vs. WT / FC Cald1 (1424768_at), treated miR-143/145 KO vs. WT / FC Camk2g (1423942_a_at), treated miR-143/145 KO vs. WT / FC Cap2 (1423222_at), treated miR-143/145 KO vs. WT / FC Clcn3 (1433486_at), treated miR-143/145 KO vs. WT / FC Efemp1 (1427183_at), treated miR-143/145 KO vs. WT / FC Itga3 (1455158_at), treated miR-143/145 KO vs. WT / FC Krt8 (1420647_a_at), treated miR-143/145 KO vs. WT / FC Mc2r (1422926_at), treated miR-143/145 KO vs. WT / FC Mylk (1425506_at), treated miR-143/145 KO vs. WT / FC Mylpf (1448371_at), treated miR-143/145 KO vs. WT / FC Myoc (1450468_at), treated miR-143/145 KO vs. WT / FC Neo1 (1440789_at), treated miR-143/145 KO vs. WT / FC Npr3 (1435184_at), treated miR-143/145 KO vs. WT / FC Pde3b (1433694_at), treated miR-143/145 KO vs. WT / FC Ppp2r1b (1419871_at), treated miR-143/145 KO vs. WT / FC Prkg1 (1449876_at), treated miR-143/145 KO vs. WT / FC Rock1 (1460729_at), treated miR-143/145 KO vs. WT / FC S100a8 (1419394_s_at), treated miR-143/145 KO vs. WT / FC S100a9 (1448756_at), treated miR-143/145 KO vs. WT / FC Serca1 (1419312_at), treated miR-143/145 KO vs. WT / FC Tnnc2 (1417464_at), treated miR-143/145 KO vs. WT / FC Unc5c (1449522_at), treated miR-143/145 KO vs. WT: aorta, chronic oral treatment 20 days; for number of the 507 deregulated probe sets returned to normal (WT) levels: mutant mice, 3 weeks (20 days) oral application, p > 0.05 vs. WT, n = 3
Excerpt: as §1
Tissues were dissected from PBS perfused animals and total RNA was isolated using the Trizol method (Invitrogen). RNA quality was checked on the Agilent 2100 Bioanalyser using the RNA 6000 Nano Kit. For mRNA expression analysis the Affymetrix GeneChip Mouse Genome 430 2.0 Array was employed with the respective one-cycle target labelling protocol. Data were analysed by the RMA algorithm using the Affymetrix Expression Console. […] 507 probe sets were identified with p<0.05 and FC>1.5 or FC<0.666. For miRNA expression analysis 384 3′ C6 aminolinker DNA-oligonucleotides complementary to published miRNA (Sanger, miRBase) sequences were synthesised and spotted with eight replicates per array to Nexterion E slides. Probe labelling and hybridization followed the Agilent miRNA labelling protocol, but P-CTTTT-Alexa555 or P-CTTTTAlexa647 oligonucleotides (MWG-Biotech) were ligated to the miRNAs. Arrays were scanned and analysed with an Axon 4200B scanner and GenePix Pro 6.0. Normalisation and data analysis was performed using Acuity 4.0. For multiple tissue comparison, miRNA from tissues was labelled with the Alexa555 dye, miRNA from whole E15.5 embryos labelled with Alexa647 dye was used as a reference. Data were linear normalized to a log ratio of 1 for the ratio of medians of let-7a-g and let-7i signals. The log 2 ratio data were centered for the single miRNA expression signals (by subtracting the row mean from each value), log 2 ratio data are visualized. For Northern blot analysis 3 μg (aorta 1.5 μg) of total RNA were separated on a 15% Polyacrylamide-Urea gel (Invitrogen) and blotted on Hybond XL (Amersham). miR-145, miR-143 and U6 antisense oligonucleotides were labeled with γ-ATP and PNK (NEB) and purified using Micro Bio-Spin® 6 columns (Biorad). Hybridization was performed in Ultrahyb hybridization buffer (Ambion) at 30° C. over night. Blots were washed 2 times in 2×SSC/0.1% SDS at 25° C. (5 min) and at 42° C. (15 min). Signals were detected using a BAS-2500 imager (Fujifilm).

[4] = KO femoral arteries, chronic captopril
[5] = mutant (KO) femoral arteries, captopril treatment vs. KO untreated

SMILES | FC Acta1 (1427735_a_at), treated miR-143/145 KO vs. WT [3] | FC Arhgef17 (1433682_at), treated miR-143/145 KO vs. WT [3] | FC Cald1 (1424768_at), treated miR-143/145 KO vs. WT [3] | FC Camk2g (1423942_a_at), treated miR-143/145 KO vs. WT [3] | FC Cap2 (1423222_at), treated miR-143/145 KO vs. WT [3] | FC Clcn3 (1433486_at), treated miR-143/145 KO vs. WT [3] | FC Efemp1 (1427183_at), treated miR-143/145 KO vs. WT [3] | FC Itga3 (1455158_at), treated miR-143/145 KO vs. WT [3] | FC Krt8 (1420647_a_at), treated miR-143/145 KO vs. WT [3] | FC Mc2r (1422926_at), treated miR-143/145 KO vs. WT [3] | FC Mylk (1425506_at), treated miR-143/145 KO vs. WT [3] | FC Mylpf (1448371_at), treated miR-143/145 KO vs. WT [3] | FC Myoc (1450468_at), treated miR-143/145 KO vs. WT [3] | FC Neo1 (1440789_at), treated miR-143/145 KO vs. WT [3] | FC Npr3 (1435184_at), treated miR-143/145 KO vs. WT [3] | FC Pde3b (1433694_at), treated miR-143/145 KO vs. WT [3] | FC Ppp2r1b (1419871_at), treated miR-143/145 KO vs. WT [3] | FC Prkg1 (1449876_at), treated miR-143/145 KO vs. WT [3] | FC Rock1 (1460729_at), treated miR-143/145 KO vs. WT [3] | FC S100a8 (1419394_s_at), treated miR-143/145 KO vs. WT [3] | other results
C[C@H](CS)C(=O)N1CCC[C@H]1C(=O)O [captopril] | 0.87 | 0.82 | 1.09 | 0.87 | 0.77 | 1.09 | 1.22 | 0.76 | 1.09 | 1.23 | 0.90 | 0.77 | 0.99 | 1.07 | 1.00 | 1.04 | 0.81 | 1.12 | 0.99 | 0.81 | diastolic pressure after acute inhibition of ACE [1]: stronger decrease; also recorded: pronounced reduction; angiotensin II-induced contraction after ACE inhibition [2, 4]: 9 % of K+ contraction; maximal force of contraction generated by K+-induced depolarization [2, 4]: No change; also recorded: did not improve; phenylephrine-effects after ACE inhibition [2, 4]: 46 % of the K+ contraction; Maximal angiotensin II-induced force of contraction ([2]; captopril-treated WT vessels, femoral artery, 20 day oral treatment): 3.4±0.6 mN; Maximal angiotensin II-induced force of contraction ([2]; femoral arteries from miR-143/145 KO mice after captopril treatment, 20 days oral): 0.30±0.05 mN; angiotensin II induced contractile responses [2, 5]: significantly improved; also recorded: markedly improved; contractile response to phenylephrine [2, 5]: improved responses; also recorded: markedly improved; FC S100a9 (1448756_at), treated miR-143/145 KO vs. WT [3]: 0.78; FC Serca1 (1419312_at), treated miR-143/145 KO vs. WT [3]: 0.72; FC Tnnc2 (1417464_at), treated miR-143/145 KO vs. WT [3]: 1.13; FC Unc5c (1449522_at), treated miR-143/145 KO vs. WT [3]: 0.63; number of the 507 deregulated probe sets returned to normal (WT) levels [3]: 248
CCCCc1nc(Cl)c(CO)n1Cc1ccc(-c2ccccc2-c2nn[nH]n2)cc1 [losartan] | 0.76 | 1.11 | 1.53 | 1.17 | 1.36 | 1.27 | 0.71 | 0.84 | 1.00 | 0.70 | 1.06 | 1.05 | 0.76 | 1.27 | 1.68 | 0.87 | 0.65 | 1.16 | 1.77 | 1.83 | FC S100a9 (1448756_at), treated miR-143/145 KO vs. WT [3]: 1.64; FC Serca1 (1419312_at), treated miR-143/145 KO vs. WT [3]: 0.82; FC Tnnc2 (1417464_at), treated miR-143/145 KO vs. WT [3]: 1.51; FC Unc5c (1449522_at), treated miR-143/145 KO vs. WT [3]: 0.80; number of the 507 deregulated probe sets returned to normal (WT) levels [3]: 220

Reference: patent publication US20120190580A1, “TREATMENT OF PATIENTS AFTER STENT IMPLANTATION OR BALLOON DILATATION AND DRUG ELUTING STENTS” (MAX-PLANCK-GESELLSCHAFT ZUR FORDERUNG DER WISSENSCHAFTEN …, priority 2009, published 2012)
